Data as given in patent US10519423B1, “High efficiency reprogramming of fibroblasts into cardiomyocytes” (The Regents of the University of Colorado, a body corporate, priority 2015, dated 2019).

What was measured:
[1] = tested on: MEFs; test: Counting of spontaneously beating cells in infected MEFs; assay type: cell-based, mouse; settings: for spontaneously beating cells induced by GHMT2m in the presence of inhibitor: GHMT2m-MEFs treated 7 days, counted at day 9, Thiazovivin 2.5 μM, SR-3677 5 μM, GW788388 3 μM, LY-364947 1.5 μM, SD-208 1 μM
Protocol: (§1) Fibroblasts were plated on tissue culture dishes pre-coated with SureCoat (Cellutron) at a density of ˜40 cells/mm^2 before transduction. The fibroblast growth medium was replaced with freshly made viral mixture containing polybrene (Sigma). Twenty-four hours later, fibroblasts were infected again with viral mixture containing polybrene. Twenty fours later, the viral medium was replaced with induction medium, composed of DMEM/199 (4:1) (Gibco), 10% FBS (Gemini), 5% horse serum(Gemini), antibiotics (Gibco), 1× non-essential amino acids (Gibco), 1× essential amino acids (Gibco), 1× B-27 (Gibco), 1× insulin-selenium-transferin (Gibco), 1× vitamin mixture (Gibco), and 1× sodium pyruvate (Gibco). Medium was changed every two-three days until cells were examined.
Cells in 60 mm dishes were examined under an EVOS® FL Color imaging system (Life Technologies) at 25° C. Beating cells were counted at a field with an area of 0.89 mm^2. Ten to fifteen fields in each dish were randomly chosen.

[2] = tested on: rats following MI; settings: cited from earlier work
[3] = tested on: iCMs; test: Spontaneous calcium transients in Fura-2 AM-loaded iCMs; assay type: cell-based, mouse; parameters: dose or concentration left out as unconfirmed; settings: iCMs on days 10-12, isoproterenol
Text: To determine whether iCMs were developing functional excitation-contraction (EC) coupling, we imaged spontaneous calcium transients from Fura-2 AM-loaded iCMs. Spontaneous calcium transients were detected in spontaneously beating cells on days 10-12 (FIGS. 68-71). […] To determine whether iCMs are able to appropriately respond to hormone stimulation, a critical function of normal cardiomyocytes, we measured calcium transients in response to the b-adrenergic agonist isoproterenol (Iso).

[4] = tested on: mice following ischemia/reperfusion injury; settings: cited from earlier work
[5] = tested on: MEFs; test: Pro-fibrotic marker expression in infected MEFs (qPCR, Western blot, αSMA stress fiber immunostaining); assay type: cell-based, mouse
Protocol: (§2) Cells were harvested in TRizol reagent (Ambion) for RNA isolation. RNA was extracted with the RNeasy® Plus Universal Mini Kit (Qiagen). RT-PCR was performed using the Superscript III first-strand synthesis system (Invitrogen). qPCR was performed using the SYBR® Green PCR master mix (Applied Biosystems) or StepOne™ Real-Time PCR Systems (Applied Biosystems). Primers are listed in Supplementary Table 1. Ryr2 (Mm00465877_m1) and Myh7 (Mm01319006_91) are Taqman probes (Life technologies).
Samples were placed on ice and washed with ice-cold DPBS (Gibco) twice, then ice-cold lysis buffer (150 mM NaCl, 50 mM Tris-Cl pH7.4, 1 mM EDTA, 1% Triton, Complete mini tablet (Roche), 1 mM PMSF freshly added before use) was added to the cells. Cells were scraped and transferred to a pre-chilled 1.5 Eppendorf tube and frozen in liquid N2. Before used, the lysate was thawed on ice. The lysate was passed carefully through a 25 g needle for 5 times and then centrifuge at 14,000 rpm for 15 minutes at 4° C. The supernatant was transferred to a new 1.5 ml tube. The protein concentration was measured and 20 ug of lysate for each sample was loaded to SDSPAGE. Proteins were then transferred to PVDF. The PDVF membrane was blocked in 2.5% BSA in 1×TBST for 30 mins at room temperature (RT). The primary antibody was added in blocking buffer for 60 mins at RT. Wash in 1×TBST (20 mM Tris-Cl, pH7.4; 150 mM NaCl; 0.1% Tween20) three times at RT, each for 15 mins. The Secondary antibody was added in blocking buffer for 45 mins at RT. The membrane was washed in 1 XTBST for 15 mins, 1×TBST for 5 mins, then TBS (10 mM Tris-Cl pH8, 150 mM NaCl) for 5 mins. The membrane was resolved with Super Signal® West Pico (34080) or Femto (34095) substrate (Thermo Scientfic). The primary antibodies include: Snail (Cell Signaling, 3879S, 1:1000), Slug (Cell Signaling, 9585S, 1:1000), P-Smad2 (Cell Signaling, 23108P, 1:1000), Smad2 (Cell Signaling, 5339, 1:1000), αSMA (Santa Cruz, SC-32251, 1:10000), cTn1 (Phospho Solutions, 2010-TNI, 1:1000), cTnT (Sigma, T6277, 1:1000), and GAPDH (Ambion, AM4300). The secondary antibodies include: Goat Anti-Mouse IgG (H+L) (Southern Biotech, 1031-05, 1:2000). Goat Anti-Rabbit IgG (Life Technologies, 65-6120, 1:2000). For separation of α- and β-myosin heavy chain, samples were run by modified 6% SDS-PAGE (separating acrylamide/bis ratio 1:100; resolving gel buffer pH 9.0; running gel buffer pH 8.2; β-mercaptoethanol 600 μl/l inner gel buffer). Gels were run overnight at 4° C. and stained with BioSafe Coomassie Blue protein stain.
(§3) Cells were fixed in 2% PFA for 15 min on ice then washed with DPBS (Gibco) three times at RT. The cells were permeabilized in 0.5% Triton X-100 (made in PBS) for 20 min at RT. After washing the cells with DPBS (Gibco), cells were incubated with the primary antibody against α-actinin (Sigma A7811, 1:300), Connexin 43 (Sigma, C6219, 1:500), Troponin T (Thermo Scientific MS-245-P, 1:500), α-SMA (Santa Cruz Biotechnology, SC-32251, 1:800), Myl2 (Proteintech, 10906-1-AP, 1:200), or Myl7 (Proteintech, 17283-1-AP, 1:200) in 10% FBS(Gemini) in DPBS for 1 hour at RT. Cells were wash with DPBS three times, 5 min each. Cell were incubated with the secondary antibody (Alexa Fluor 555 Molecular Probes A21422, 1:1000) and Hoechest (Molecular Probes 33342, 1:5000) for 30 mins at RT.

[6] = tested on: MEFs; test: Immunocytochemistry for cTnT and α-actinin in infected MEFs; assay type: cell-based, mouse
Protocol: as §1, §3

[7] = tested on: MEFs; test: qPCR of cardiac genes in reprogramming MEFs; assay type: cell-based, mouse
Protocol: as §2

[8] = tested on: MEFs; test: Intracellular staining for flow cytometry (cTnT, Myc) in retrovirus-infected MEFs; assay type: cell-based, mouse; settings: GHMT-infected MEFs, day 7; alone or treated with TGF-β1 (10 ng/ml) or A83-01 (0.5 μM, day 3 to day 7)
Protocol: C57BL6 pregnant mice at E13 were order from Charles River's laboratory. Embryos at E14.5 were harvested and their internal organs and head were removed. The body below the liver was minced using blade to fine pieces. Minced embryos were incubated with 2 ml of 0.25% trypsinIl mM EDTA, Phenol Red (Gibco) for 40 mins at 37° C. with 5% CO2. Cells were suspended in 25 ml of growth medium (DMEM/Hi glucose (Hyclone) 10% FBS (Gemini), 1.1% Penicillin-Streptomycin (Gibco) and 1.1% GlutaMAX supplement (Gibco)) and then plated on a 15 cm dish. In 24 hours, the media was aspirated and new 25 ml of growth medium was added. In 72 hours, MEFs were harvested and stored for future use.
as §1
Adherent fibroblasts were washed with DPBS (Gibco). Cells were detached from culture dish by treatment with 0.25% Trypsin/EDTA (Gibco) for 3 min at 37° C. Cells were then washed with 4 ml of 5% FBS (Gemini) in DPBS filtered through a cell strainer and centrifuge at 1200 rpm×6 mins. Cells were washed with 500 ul of 1% BSA in DPBS. Cells were fixed with BD Cytofix/Cytoperm™ solution in 0.2 ml/1 million cells in 1.5 ml eppendorf tube for 20 min on ice. Cells were washed with 1 ml of BD perm/wash buffer and Centrifuged for 6 min at 1200 rpm. The supernatant was discarded; cells were washed again with 1 ml of BD Perm/wash buffer and left overnight at 4° C. The next day, Cells were centrifuged for 6 min at 1200 rpm, the supernatant discarded and 100 μl of Blocking buffer made with 5% goat, donkey serum (Sigma: G9023 and D9663) in Perm/wash buffer was added to the cells and incubated for 30 min at RT. A primary antibody: Mouse Troponin T (cTnT) antibody (Thermo Scientific, ms-295-p, 1:200), mouse anti-C-Myc antibody (BD Pharmingen, 551102, 1:200) in 100 μl BD Perm/Wash buffer was added to the cells and incubated for 1 hr at RT. One ml cold BD Perm/wash buffer was added to the cells and centrifuged for 6 min at 1200 rpm. […] Cells were re-suspended in 300 ul of 1% BSA/DPBS and then analyzed using FACS Caliber (BD Sciences) and FlowJo software.

[9] = GFP-, GHMT- and GHMT2m-infected cultures, day 7

O=C(NC1CCOCC1)c1ccc(-c2cc(-c3c[nH]nc3-c3ccccn3)ccn2)cc1 [GW788388]
spontaneously beating cells induced by GHMT2m in the presence of inhibitor [1]: enhanced cardiac reprogramming by inducing more spontaneously beating cells
TGF-β activity, cardiac fibrosis, ventricular remodeling, systolic dysfunction [2]: significantly decreased TGF-β activity, cardiac fibrosis and ventricular remodeling with attenuation of systolic dysfunction

CC(C)NCC(O)c1ccc(O)c(O)c1 (stereo not shown) [Iso, isoproterenol]
frequency of cell contraction and spontaneous calcium transients [3]: significantly increased

c1ccc(-c2[nH]ncc2-c2ccnc3ccccc23)nc1 [LY-364947]
spontaneously beating cells induced by GHMT2m in the presence of inhibitor [1]: enhanced cardiac reprogramming by inducing more spontaneously beating cells

Fc1ccc(Cl)cc1-c1nc(Nc2ccncc2)c2nccnc2n1 [SD-208]
spontaneously beating cells induced by GHMT2m in the presence of inhibitor [1]: enhanced cardiac reprogramming by inducing more spontaneously beating cells

CN(C)CCOc1cc(-c2cn[nH]c2)ccc1NC(=O)C1COc2ccccc2O1 (stereo not shown) [SR-3677]
spontaneously beating cells induced by GHMT2m in the presence of inhibitor [1]: enhanced cardiac reprogramming and promoted formation of spontaneously beating cells

O=C(NCc1ccccc1)c1csc(Nc2ccncn2)n1 [Thiazovivin]
spontaneously beating cells induced by GHMT2m in the presence of inhibitor [1]: enhanced cardiac reprogramming and promoted formation of spontaneously beating cells

C[C@@H](N)[C@H]1CC[C@H](C(=O)Nc2ccncc2)CC1 [Y-27632]
infarct size and remodeling [4]: decreased infarct size and remodeling
Snail and Slug expression [5, 9]: did not change
expression of Fn-EDA and αSMA [5, 9]: decreased
inhibition of expression of pro-fibrotic markers, comparison of inhibitors ([5]; reprogramming MEFs): inhibited expression of pro-fibrotic markers less efficiently than A83-01
assembly of myocyte sarcomeres ([6]; infected MEFs treated with Y-27632 (30 μM), day 14): enhanced
beating cell population ([1]; GHMT2m cultures of MEFs, by day 12, without or with Y-27632 (30 μM)): ~30%
increase of the number of beating cells ([1]; GHMT-infected MEFs, Y-27632 30 μM, by 4 weeks): 7 fold
time by which cells started to beat ([1]; MEFs, GHMT2m alone, or GHMT-infected cultures treated with Y-27632 (30 μM) or A83-01 (0.5 μM)): ≤ 12 days
cardiomyocyte-specific gene expression ([7]; reprogramming MEFs treated with Y-27632 for 5 days, day 7): enhanced

TGF-β1: Recombinant Mouse TGF-beta 1 (R&D Systems 7666-MB-005), pro-fibrotic stimulus
cTnThigh fraction [8]: approximately 19%
profibrotic gene Col1a1 expression ([5]; GHMT2m-fibroblasts treated with TGF-β1): enhanced
amount of phospho-Smad2, expression of Fn-EDA and Col1a1, formation of αSMA stress fibers ([5]; GHMT-infected cultures at day 7, TGF-β1 10 ng/ml, compared to non-treated): increased
fraction of cTnT+ cells ([6]; GHMT2m-cultures treated with TGF-β1, day 7 and day 14): did not significantly decrease
cTnT+ and α-actinin+ populations ([6]; GHMT-infected MEFs treated with TGF-β1, day 14): significantly reduced
decrease of beating cells ([1]; GHMT2m-infected MEFs treated with TGF-β1, by one month): 100 fold
effect on beating cells ([1]; GHMT-infected MEFs treated with TGF-β1, by one month): completely abolished
expression of other cardiomyocyte markers, including α-actinin, Myh6 and Actc1 ([7]; GHMT2m-cultures treated with TGF-β1): significantly down-regulated
cardiac gene expression ([7]; GHMT-infected cultures treated with TGF-β1 for 4 days): significantly reduced
